The values below come from patent US20230374015A1, “INHIBITORS OF FIBROBLAST GROWTH FACTOR RECEPTOR KINASES” (Kinnate Biopharma Inc., priority 2020, published 2023).

The target of this assay is FGFR2 (Homo sapiens, UniProt P21802). The assay is described as follows: FGFR2 Kinase Protocol - Condition 2 (Reaction Biology HotSpot radiometric kinase assay, no preincubation). The settings on record: poly[Glu:Tyr] (4:1) 0.2 mg/ml, ATP 100 microM, 2 hr room temperature. It counts as biochemical. The procedure, abridged:
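Ten-point, 3-fold compound dilutions were tested against wildtype or V564F FGFR2 with 100 µM ATP (33P-labelled), no preincubation, and 0.2 mg/ml poly[Glu:Tyr] (4:1) substrate. After 2 hr at room temperature, incorporation was read on P81 filter paper; IC50 fitted from activity remaining relative to vehicle.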

Chain of FGFR2 (P21802 22-821): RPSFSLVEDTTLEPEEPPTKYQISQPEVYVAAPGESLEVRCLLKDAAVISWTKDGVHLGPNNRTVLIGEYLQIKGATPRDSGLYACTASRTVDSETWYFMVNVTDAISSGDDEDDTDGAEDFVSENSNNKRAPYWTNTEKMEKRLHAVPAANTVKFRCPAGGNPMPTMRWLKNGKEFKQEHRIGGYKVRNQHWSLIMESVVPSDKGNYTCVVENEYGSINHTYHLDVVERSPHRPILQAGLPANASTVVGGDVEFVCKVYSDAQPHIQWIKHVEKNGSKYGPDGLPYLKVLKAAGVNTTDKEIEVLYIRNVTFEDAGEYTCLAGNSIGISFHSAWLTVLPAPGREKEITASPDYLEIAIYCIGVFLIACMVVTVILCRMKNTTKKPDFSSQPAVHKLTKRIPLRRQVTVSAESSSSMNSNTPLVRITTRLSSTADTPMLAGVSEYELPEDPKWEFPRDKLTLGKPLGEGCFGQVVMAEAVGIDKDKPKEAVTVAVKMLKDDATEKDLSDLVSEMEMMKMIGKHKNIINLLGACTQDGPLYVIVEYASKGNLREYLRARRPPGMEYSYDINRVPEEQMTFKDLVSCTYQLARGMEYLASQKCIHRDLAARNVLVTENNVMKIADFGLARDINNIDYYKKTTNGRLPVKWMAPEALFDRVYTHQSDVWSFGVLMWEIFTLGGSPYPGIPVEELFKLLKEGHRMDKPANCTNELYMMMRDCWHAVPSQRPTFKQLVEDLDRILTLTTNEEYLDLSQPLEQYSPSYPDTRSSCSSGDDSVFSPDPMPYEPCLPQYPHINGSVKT

A word on the IC50: it is the concentration that gives 50% inhibition. High values mean weaker potency, low ones greater potency. `C=CC(=O)N1C[C@@H](n2nc(C#Cc3cc4ncn(C5CC5)c4cc3Cl)c3c(N)ncnc32)C[C@@H]1CC#N` [Example 187, 2-[(2R,4S)-4-{4-Amino-3-[2-(6-chloro-1-cyclopropyl-1,3-benzodiazol-5-yl)ethynyl]pyrazolo[3,4-d]pyrimidin-1-yl}-1-(prop-2-enoyl)pyrrolidin-2-yl]acetonitrile] displayed a half-inhibitory concentration (IC50) of no more than 100 nM. The same measure, in the same setting: the result for `C=CC(=O)N1C[C@@H](n2nc(C#Cc3ccc4c(c3)ncn4C3CC3)c3c(N)ncnc32)C[C@@H]1CC#N` [Example 188, 2-[(2R,4S)-4-{4-Amino-3-[2-(1-cyclopropyl-1,3-benzodiazol-5-yl)ethynyl]pyrazolo[3,4-d]pyrimidin-1-yl}-1-(prop-2-enoyl)pyrrolidin-2-yl]acetonitrile] reads no more than 100 nM; that for `C=CC(=O)N1CC[C@H](n2nc(C#Cc3cc4nc(C)n(C)c4c(F)c3F)c3c(N)ncnc32)C1` [Example 189, 1-[(3S)-3-{4-Amino-3-[2-(6,7-difluoro-1,2-dimethyl-1,3-benzodiazol-5-yl)ethynyl]pyrazolo[3,4-d]pyrimidin-1-yl}pyrrolidin-1-yl]prop-2-en-1-one], no more than 100 nM. In turn, `C=CC(=O)N1CC[C@H](n2nc(C#Cc3cc4ncn(C5CC5)c4c(F)c3Cl)c3c(N)ncnc32)C1` [Example 190, 1-[(3S)-3-{4-Amino-3-[2-(6-chloro-1-cyclopropyl-7-fluoro-1,3-benzodiazol-5-yl)ethynyl]pyrazolo[3,4-d]pyrimidin-1-yl}pyrrolidin-1-yl]prop-2-en-1-one] showed a concentration for half-maximal inhibition (IC50) of no more than 100 nM.

In turn, `C=CC(=O)N1CC[C@H](n2nc(C#Cc3cc4ncn(C5CC5)c4cc3Cl)c3c(N)ncnc32)C1` [Example 191, 1-[(3S)-3-{4-Amino-3-[2-(6-chloro-1-cyclopropyl-1,3-benzodiazol-5-yl)ethynyl]pyrazolo[3,4-d]pyrimidin-1-yl}pyrrolidin-1-yl]prop-2-en-1-one] displayed a 50% inhibitory concentration (IC50) of no more than 100 nM. In turn, `C=CC(=O)N1CC[C@H](n2nc(C#Cc3cc4nc(C)n(C)c4cc3F)c3c(N)ncnc32)C1` [Example 192, 1-[(3S)-3-{4-Amino-3-[2-(6-fluoro-1,2-dimethyl-1,3-benzodiazol-5-yl)ethynyl]pyrazolo[3,4-d]pyrimidin-1-yl}pyrrolidin-1-yl]prop-2-en-1-one] yielded an IC50 of no more than 100 nM. Same read-out and setting: under `C=CC(=O)N1CC[C@H](n2nc(C#Cc3ccc4c(c3)ncn4C3CC3)c3c(N)ncnc32)C1` [Example 193, 1-[(3S)-3-{4-Amino-3-[2-(1-cyclopropyl-1,3-benzodiazol-5-yl)ethynyl]pyrazolo[3,4-d]pyrimidin-1-yl}pyrrolidin-1-yl]prop-2-en-1-one] stands no more than 100 nM. On the same count and under the same terms, under `C=CC(=O)N1CC[C@H](n2nc(C#Cc3cc4ncn(C5CC5)c4c(F)c3F)c3c(N)ncnc32)C1` [Example 194, 1-[(3S)-3-{4-Amino-3-[2-(1-cyclopropyl-6,7-difluoro-1,3-benzodiazol-5-yl)ethynyl]pyrazolo[3,4-d]pyrimidin-1-yl}pyrrolidin-1-yl]prop-2-en-1-one] stands no more than 100 nM; under `C=CC(=O)N1CC[C@H](n2nc(C#Cc3c(F)cc4c(ncn4C4CC4)c3F)c3c(N)ncnc32)C1` [Example 195, 1-[(3S)-3-{4-Amino-3-[2-(1-cyclopropyl-4,6-difluoro-1,3-benzodiazol-5-yl)ethynyl]pyrazolo[3,4-d]pyrimidin-1-yl}pyrrolidin-1-yl]prop-2-en-1-one], no more than 100 nM; under `C=CC(=O)N1C[C@@H](n2nc(C#Cc3cc4ncn(C5CC5)c4cc3F)c3c(N)ncnc32)C[C@@H]1COC(F)F` [Example 196, 1-((2R,4S)-4-(4-Amino-3-((1-cyclopropyl-6-fluoro-1H-benzo[d]imidazol-5-yl)ethynyl)-1H-pyrazolo[3,4-d]pyrimidin-1-yl)-2-((difluoromethoxy)methyl)pyrrolidin-1-yl)prop-2-en-1-one], no more than 100 nM. With `C=CC(=O)N1C[C@@H](n2nc(C#Cc3cc4ncn(C5CC5)c4cc3F)c3c(N)ncnc32)C[C@@H]1CF` [Example 197, 1-((2R,4S)-4-(4-Amino-3-((1-cyclopropyl-6-fluoro-1H-benzo[d]imidazol-5-yl)ethynyl)-1H-pyrazolo[3,4-d]pyrimidin-1-yl)-2-(fluoromethyl)pyrrolidin-1-yl)prop-2-en-1-one], the IC50 is no more than 100 nM. `C=CC(=O)N1C[C@H](c2nc(C#Cc3cc4ncn(C5CC5)c4cc3F)c3c(N)ncnn23)C[C@@H]1COC` [Example 198, 1-[(2R,4R)-4-{4-Amino-5-[2-(1-cyclopropyl-6-fluoro-1,3-benzodiazol-5-yl)ethynyl]imidazo[4,3-f][1,2,4]triazin-7-yl}-2-(methoxymethyl)pyrrolidin-1-yl]prop-2-en-1-one]: the half-maximal inhibitory concentration (IC50) (given as numeric bound) is greater than 500 nM. In the case of `C=CC(=O)N1C[C@@H](c2nc(C#Cc3cc4ncn(C5CC5)c4cc3F)c3c(N)ncnn23)C[C@@H]1COC` [Example 199, 1-[(2R,4S)-4-{4-Amino-5-[2-(1-cyclopropyl-6-fluoro-1,3-benzodiazol-5-yl)ethynyl]imidazo[4,3-f][1,2,4]triazin-7-yl}-2-(methoxymethyl)pyrrolidin-1-yl]prop-2-en-1-one], the IC50 was no more than 100 nM. For the setting “given as numeric bound”, `C=CC(=O)N1CC[C@H](c2nc(C#Cc3cc4ncn(C5CC5)c4cc3F)c3c(N)ncnn23)C1` [Example 200, (S)-1-(3-(4-Amino-5-((1-cyclopropyl-6-fluoro-1H-benzo[d]imidazol-5-yl)ethynyl)imidazo[5,1-f][1,2,4]triazin-7-yl)pyrrolidin-1-yl)prop-2-en-1-one] displayed an IC50 greater than 500 nM. `C=CC(=O)N1CC[C@H](c2nc(C#Cc3cc4ncn(C5CC5)c4cc3F)c3c(N)nccn23)C1` [Example 201, 1-[(3 S)-3-{8-Amino-1-[2-(1-cyclopropyl-6-fluoro-1,3-benzodiazol-5-yl)ethynyl]imidazo[1,5-a]pyrazin-3-yl}pyrrolidin-1-yl]prop-2-en-1-one]: the IC50 was 100 to 1000 nM. On to `C=CC(=O)N1C[C@H](c2nc(C#Cc3cc4ncn(C5CC5)c4cc3F)c3c(N)nccn23)C[C@@H]1COC` [Example 202, 1-[(2R,4R)-4-{8-Amino-1-[2-(1-cyclopropyl-6-fluoro-1,3-benzodiazol-5-yl)ethynyl]imidazo[1,5-a]pyrazin-3-yl}-2-(methoxymethyl)pyrrolidin-1-yl]prop-2-en-1-one], for which the half-maximal inhibitory concentration (IC50) (given as numeric bound) was greater than 500 nM.

Consider `C=CC(=O)N1C[C@@H](c2nc(C#Cc3cc4ncn(C5CC5)c4cc3F)c3c(N)nccn23)C[C@@H]1COC` [Example 203, 1-[(2R,4S)-4-{8-Amino-1-[2-(1-cyclopropyl-6-fluoro-1,3-benzodiazol-5-yl)ethynyl]imidazo[1,5-a]pyrazin-3-yl}-2-(methoxymethyl)pyrrolidin-1-yl]prop-2-en-1-one], for which the IC50 was no more than 100 nM.
